Assays:
Dga1pΔ85 [1] = target: T1, Dga1pΔ85 (Yarrowia lipolytica, UniProt Q6C3R2); assay: fluorescent DGAT assay, HPTLC of NBD-TG; type: biochemical
T1 construct: gene YALI0_E32769g; lacks 85 N-terminal residues (incl. putative TM domain) of the 515-residue protein; N-terminal MBP fusion kept, ~90 kDa, pMalc2X, E. coli BL21 (DE3) pLysS; dimer on SEC

Dga1pΔ85 [2] = target: T1, Dga1pΔ85; assay: fluorescent DGAT assay, HPTLC of NBD-TG; type: biochemical; details: 1 mM niacin; 100 μM C18:0-CoA, 100 μM NBD-DG, 20 mM MgCl2, Hepes pH 7.6, 31°C; noncompetitive (per cited literature)
Dga1pΔ19 [3] = target: T2, Dga1pΔ19 (Yarrowia lipolytica, UniProt Q6C3R2); assay: fluorescent DGAT assay, HPTLC of NBD-TG; type: biochemical; details: 1 mM niacin; 100 μM C18:0-CoA, 100 μM NBD-DG, 20 mM MgCl2, Hepes pH 7.6, 31°C; noncompetitive (per cited literature)
T2 construct: gene YALI0_E32769g; lacks 19 N-terminal residues of the printed 515-residue protein; N-terminal MBP fusion kept, ~99 kDa, pMalc2X, E. coli BL21 (DE3) pLysS; dimer on SEC

Dga1pΔ19 [4] = target: T2, Dga1pΔ19; assay: fluorescent DGAT assay, HPTLC of NBD-TG; type: biochemical; details: acyl donor; 100 μM NBD-DG, 20 mM MgCl2, Hepes pH 7.6, 0.01% tween 20, 31°C
[5] = target: MBP-Dga1pΔ19 fusion protein (Yarrowia lipolytica); assay: SEC; Hiload 16/60 Superdex 200 column, 4°C; amylose-purified fractions incubated overnight with lysis buffer (50 mM Tris-HCl pH 7.5, 150 mM NaCl, 5% glycerol, 1 mM EDTA, 1 mM TCEP) with 0.5% N-lauroyl sarcosine before the column; major peak taken as a dimer
[6] = target: MBP-Dga1pΔ85 construct (Yarrowia lipolytica); assay: as above

T1 sequence (Q6C3R2 entry or part of it, stated change not applied): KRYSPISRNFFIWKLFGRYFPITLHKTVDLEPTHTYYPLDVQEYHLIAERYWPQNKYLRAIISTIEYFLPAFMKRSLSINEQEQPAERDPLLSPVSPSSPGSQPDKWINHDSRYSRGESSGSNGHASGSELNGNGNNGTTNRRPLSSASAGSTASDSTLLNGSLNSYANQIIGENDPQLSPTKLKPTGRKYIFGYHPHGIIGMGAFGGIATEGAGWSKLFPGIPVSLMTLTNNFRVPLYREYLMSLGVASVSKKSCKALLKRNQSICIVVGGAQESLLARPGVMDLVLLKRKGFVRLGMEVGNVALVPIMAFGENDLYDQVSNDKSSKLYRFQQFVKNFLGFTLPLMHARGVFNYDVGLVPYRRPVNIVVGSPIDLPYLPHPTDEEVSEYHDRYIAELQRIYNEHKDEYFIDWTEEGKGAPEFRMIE
T2 sequence (Q6C3R2 entry or part of it, stated change not applied): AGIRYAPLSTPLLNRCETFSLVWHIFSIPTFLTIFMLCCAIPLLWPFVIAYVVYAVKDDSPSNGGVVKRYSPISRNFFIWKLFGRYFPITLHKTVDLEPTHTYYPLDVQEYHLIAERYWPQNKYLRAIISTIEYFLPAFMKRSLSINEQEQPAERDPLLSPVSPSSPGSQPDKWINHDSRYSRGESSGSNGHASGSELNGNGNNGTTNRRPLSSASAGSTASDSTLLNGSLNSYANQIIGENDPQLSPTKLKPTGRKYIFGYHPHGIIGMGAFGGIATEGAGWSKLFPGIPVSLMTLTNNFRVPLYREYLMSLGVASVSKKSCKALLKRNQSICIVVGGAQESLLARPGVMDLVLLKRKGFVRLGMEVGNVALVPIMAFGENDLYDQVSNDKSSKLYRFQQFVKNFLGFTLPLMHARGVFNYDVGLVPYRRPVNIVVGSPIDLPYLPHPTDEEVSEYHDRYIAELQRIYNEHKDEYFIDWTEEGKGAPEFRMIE

Molecule: CCCCCCCCCC(=O)O[C@@H](CO)COC(=O)CCCCCCCCCNc1ccc([N+](=O)[O-])c2nonc12 [NBD-DG]
- fluorescent DGAT assay, HPTLC of NBD-TG (Dga1pΔ85 [1]; acyl acceptor, labelled compound, 100 μM with C18:0-CoA, 20 mM MgCl2, Hepes pH 7.6, 31°C): both recombinant enzymes harbored increasing DGAT activities in the presence of various C18:0-CoA concentrations

Molecule: O=C(O)c1cccnc1 [niacin]
- % decrease of TG production at 1 mM (Dga1pΔ85 [2]): 99.5%
- % decrease of TG production at 1 mM (Dga1pΔ19 [3]): 70%

Molecule: CCCCCCCCCCCCCCCCCC(=O)SCCNC(=O)CCNC(=O)[C@H](O)C(C)(C)COP(=O)(O)OP(=O)(O)OC[C@H]1O[C@@H](n2cnc3c(N)ncnc32)[C@H](O)[C@@H]1OP(=O)(O)O [stearoyl-CoA]
- fluorescent DGAT assay, HPTLC of NBD-TG (Dga1pΔ85 [1]; acyl donor, 100 μM NBD-DG, 20 mM MgCl2, Hepes pH 7.6, 0.01% tween 20, 31°C): C18:0-CoA was an efficient acyl donor for both enzyme versions
- fluorescent DGAT assay, HPTLC of NBD-TG (Dga1pΔ19 [4]): C18:0-CoA was an efficient acyl donor for both enzyme versions

Molecule: MBP-Dga1pΔ19 fusion protein (domain or fragment)
- stoichiometry N [5]: 2

Molecule: MBP-Dga1pΔ85 construct (domain or fragment)
- stoichiometry N [6]: 2
